O=C1OC(=O)c2ccc(Br)c3cccc1c23
solubility (mole fraction)
Conditions	278.15 K	283.15 K	288.15 K	293.15 K	298.15 K	303.15 K
in acetic acid	0.000263	0.000316	0.000382	0.00046	0.000565	0.000666
in acetone	0.001	0.00119	0.00138	0.00161	0.00192	0.00224
in ethanol	2.66e-05	3.65e-05	5.08e-05	6.99e-05	9.53e-05	0.000131
in methanol	4.62e-05	6.41e-05	8.62e-05	0.000118	0.00016	0.000212
